Here are results for one molecule from patent publication US9809537B2, “Glycosidase inhibitors and uses thereof” (Alectos Therapeutics Inc., priority 2012, dated 2017).

The test system of experiment [1] is O-GlcNAcase in rat PC-12 cells. Description: Cell-based ELISA of O-GlcNAcylated protein (RL-2 antibody). As to conditions: 24 h treatment, O-GlcNAcylated protein level. An excerpt:
Assay for Determination of Cellular Activity for Compounds that Inhibit O-GlcNAcase Activity
Inhibition of O-GlcNAcase, which removes O-GlcNAc from cellular proteins, results in an increase in the level of O-GlcNAcylated protein in cells. An increase in O-GlcNAcylated protein can be measured by an antibody, such as RL-2, that binds to O-GlcNAcylated protein. The amount of O-GlcNAcylated protein:RL2 antibody interaction can be measured by enzyme linked immunosorbant assay (ELISA) procedures.
A variety of tissue culture cell lines, expressing endogenous levels of O-GlcNAcase, can be utilized; examples include rat PC-12, and human U-87, or SK—N—SH cells. […] If desired, the total protein concentration of samples is determined using 20 μL of the sample using the BCA method.
The ELISA portion of the assay is performed in a black Maxisorp 96-well plate that is coated overnight at 4° C. with 100 μL/well of the cell lysate (1:10 dilution of the lysate with PBS containing protease inhibitors, phosphatase inhibitors, and PMSF). […] The detection reaction is incubated for 15 minutes at room temperature and then read with excitation at 530 nm and emission at 590 nm.
The amount of O-GlcNAcylated protein, as detected by the ELISA assay, is plotted for each concentration of test compound using standard curve fitting algorithms for sigmoidal dose response curves. […]
Background: An ELISA detects its analyte on a solid surface through an enzyme-linked reagent.

The target in another experiment is T1, human O-GlcNAcase (Homo sapiens, UniProt O60502).
T1 sequence (O60502 1-916): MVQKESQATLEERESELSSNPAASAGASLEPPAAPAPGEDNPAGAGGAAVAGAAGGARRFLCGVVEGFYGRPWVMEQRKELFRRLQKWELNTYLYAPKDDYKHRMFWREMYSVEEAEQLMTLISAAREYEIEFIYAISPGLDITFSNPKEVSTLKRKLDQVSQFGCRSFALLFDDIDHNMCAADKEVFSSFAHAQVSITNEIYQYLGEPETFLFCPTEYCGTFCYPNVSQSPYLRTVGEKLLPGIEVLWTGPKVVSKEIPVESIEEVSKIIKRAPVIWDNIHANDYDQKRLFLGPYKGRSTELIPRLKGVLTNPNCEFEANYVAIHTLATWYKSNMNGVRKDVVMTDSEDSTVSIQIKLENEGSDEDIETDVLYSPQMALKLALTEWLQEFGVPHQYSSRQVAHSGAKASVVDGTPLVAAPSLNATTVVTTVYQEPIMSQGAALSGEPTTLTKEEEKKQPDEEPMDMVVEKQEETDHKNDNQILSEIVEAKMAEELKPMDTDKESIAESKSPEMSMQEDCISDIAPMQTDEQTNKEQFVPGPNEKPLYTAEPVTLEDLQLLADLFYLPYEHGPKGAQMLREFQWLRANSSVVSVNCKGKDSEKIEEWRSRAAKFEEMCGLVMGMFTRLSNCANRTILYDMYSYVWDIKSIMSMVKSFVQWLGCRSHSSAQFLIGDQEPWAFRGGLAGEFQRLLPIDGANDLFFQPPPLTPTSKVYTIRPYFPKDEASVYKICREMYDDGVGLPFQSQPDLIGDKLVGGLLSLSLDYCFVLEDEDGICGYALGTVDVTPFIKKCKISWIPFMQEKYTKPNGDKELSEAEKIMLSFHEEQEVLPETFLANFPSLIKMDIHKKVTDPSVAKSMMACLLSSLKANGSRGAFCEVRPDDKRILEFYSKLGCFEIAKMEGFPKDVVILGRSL
Nature of the experiment: Fluorescence-based assay for KI values for inhibition of O-GlcNAcase activity. In kind it is biochemical. Conditions: purified human O-GlcNAcase, 4-methylumbelliferyl GlcNAc substrate, pH 7.0, Cheng-Prusoff; read-out: Fluorescence-based hOGA Ki. On the procedure:
Assay for Determination of KI Values for Inhibition of O-GlcNAcase Activity
Experimental Procedure for Kinetic Analyses:
Enzymatic reactions were carried out in a reaction containing 50 mM NaH2PO4, 100 mM NaCl and 0.1% BSA (pH 7.0) using 2 mM 4-Methylumbelliferyl N-acetyl-β-D-glucosaminide dihydrate (Sigma M2133) dissolved in ddH2O, as a substrate. The amount of purified human O-GlcNAcase enzyme used in the reaction was 0.7 nM. Test compound of varying concentrations was added to the enzyme prior to initiation of the reaction. The reaction was performed at room temperature in a 96-well plate and was initiated with the addition of substrate. The production of fluorescent product was measured every 60 sec for 45 min with a Tecan Infinite M200 plate-reader with excitation at 355 nm and emission detected at […], with 4-Methylumbelliferone (Sigma M1381) used to produce a standard curve. The slope of product production was determined for each concentration of compound tested and plotted, using standard curve fitting algorithms for sigmoidal dose response curves. The values for a four parameter logistic curve fit of the data were determined.
KI values were determined using the Cheng-Prusoff equation; the Km of O-GlcNAcase for substrate was 0.2 mM.

Structures are written as SMILES.

In general, EC50 refers to the concentration that produces a half-maximal response. A higher EC50 goes with a need for much substance. The Ki is a measure of affinity in units of concentration, obtained from inhibition or displacement.

In turn, `CC(=O)NC[C@@H]1[C@@H](O)[C@H](O)[C@@H](CO)N1CCCc1ccc(-c2ccccc2)cc1` [Example 3, N-(((2R,3R,4R,5R)-1-(3-([1,1′-biphenyl]-4-yl)propyl)-3,4-dihydroxy-5-(hydroxymethyl)pyrrolidin-2-yl)methyl)acetamide] displayed an EC50 in experiment [1] of 665 nM. On human O-GlcNAcase, the Ki was determined as 16 nM.
